Data as given in US12528840B2, “Transcription active complex targeting cancer drug from viral protein sequence” (The Regents of the University of California, priority 2020, dated 2026).

Test system: BCBL-1 cells
Conditions: MTT, compared to Mut d1-1 control peptide
Excerpt: FIG. 8. Amino acid conservation among different gamma-herpesviral transactivator proteins. […] DE; D substitute to glutamic acid, DS: D substituted for serine. ST; serine substituted for threonine (marked in red).
Amino acid sequence alignment identified homologous protein sequences in other gamma-herpesvirus protein sequence (The Top table in FIG. 8a, also shown in FIG. 2). Based on their alignment, “non-natural” protein sequences were generated by substituting specific amino acids (The peptides are: Wt d1-1, DS 3-1, DE 3-1, and Mut d1-1 (control peptide) from the top to the bottom in the Bottom Table in FIG. 8a). Those four peptides were used in MTT assays in FIG. 8b to examine the effects on cell growth of BCBL-1 […] effusion lymphoma (PEL) cell line. Also tested are three D-amino acid substitutions first two amino acids and c-terminal amino acid (ST d3-1), in comparison with one D-amino acid peptide (N-terminus) (Wt d3-1).

Substance: d-Arg-KKRR-Ornithine-RRR-B-alanine-LSSILQGLYQL-d-Asp-d Glu [DE 3-1]
- killing of BCBL-1 cells in vitro: killed BCBL-1 cells in vitro at similar efficacies

Substance: d-Arg-KKRR-Ornithine-RRR-B-alanine-LSSILQGLYQL-d-Asp-d Ser [DS 3-1]
- killing of BCBL-1 cells in vitro: killed BCBL-1 cells in vitro at similar efficacies

Substance: d-Arg-KKRR-Ornithine-RRR-B-alanine-LSSILQGLYQL-d-Asp-d Thr [Wt d3-1]
- killing of BCBL-1 cells in vitro: killed BCBL-1 cells in vitro at similar efficacies

Substance: d-Arg-KKRR-Ornithine-RRR-B-alanine-LSTILQGLYQL-d-Asp-d Thr [ST d3-1]
- killing of BCBL-1 cells in vitro: killed BCBL-1 cells in vitro at similar efficacies

Substance: d-Arg-KKRR-Ornithine-RRR-β-alanine-LSSILQGLYQLDT [Wt d1-1]
- killing of BCBL-1 cells in vitro: killed BCBL-1 cells in vitro at similar efficacies
